Measured values as given in the supplement of paper PMC10331698.
± gives the standard deviation of the averaged measurements.

Experiments:
Experiment in all cases: level (log10 ratio to DMSO vehicle control); higher = higher biomarker level / cell amount than vehicle control
[1] = compound: OCC(F)(F)C(F)(F)C(F)(F)C(F)(F)C(F)(F)C(F)(F)C(F)(F)C(F)(F)C(F)(F)C(F)(F)C(F)(F)F [11:1 Fluorotelomer alcohol]; settings: in DMSO
Experimental: (§1)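 BioMAP Diversity Plus panel of 12 human primary cell co-culture systems (3C, 4H, LPS, SAg, BT, BF4T, BE3C, CASM3C, HDF3CGF, KF3CT, MyoF, Mphg). Compounds were added 1 h before stimulation and left for 24 h (MyoF 48 h; BT 72 h for soluble read-outs or 6 d for IgG). Biomarkers were read by ELISA, cytotoxicity by SRB, PBMC viability and proliferation by Alamar Blue. Each well value was divided by the mean of 8 DMSO control wells on the same plate and log10 transformed; duplicate blinded samples were tested at 4 concentrations.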

[2] = compound: O=S(=O)(O)CCC(F)(F)C(F)(F)C(F)(F)C(F)(F)F [4:2 Fluorotelomer sulfonic acid]; settings: in DMSO
Experimental: as §1

[3] = compound: FC(F)(I)C(F)(F)C(F)(F)C(F)(F)C(F)(F)C(F)(F)I [1,6-Diiodoperfluorohexane]; settings: 6700 nM; in DMSO
Experimental: as §1

[4] = compound: O=S(=O)(OCC(F)(F)F)C(F)(F)C(F)(F)C(F)(F)C(F)(F)F [2,2,2-Trifluoroethyl perfluorobutanesulfonate]; settings: in DMSO
Experimental: as §1

[5] = compound: O=C(CC(=O)C(F)(F)C(F)(F)C(F)(F)F)c1cccs1 [(Perfluorobutyryl)-2-thenoylmethane]; settings: in DMSO
Experimental: as §1

[6] = compound: O=C(Cl)C(F)(F)C(F)(F)C(F)(F)C(=O)Cl [Hexafluoroglutaryl chloride]; settings: in DMSO
Experimental: as §1

[7] = compound: OCC(F)(F)C(F)(F)C(F)(F)C(F)(F)C(F)(F)C(F)(F)F [6:1 Fluorotelomer alcohol]; settings: in DMSO
Experimental: as §1

Test System | level (log10) ([1]; 1100 nM) | level (log10) ([1]; 3300 nM) | level (log10) ([1]; 10000 nM) | level (log10) ([2]; 6700 nM) | level (log10) ([2]; 20000 nM) | level (log10) ([2]; 60000 nM) | level (log10) [3] | level (log10) ([4]; 6700 nM) | level (log10) ([4]; 20000 nM) | level (log10) ([4]; 60000 nM) | level (log10) ([5]; 6700 nM) | level (log10) ([5]; 20000 nM) | level (log10) ([6]; 6700 nM) | level (log10) ([6]; 20000 nM) | level (log10) ([6]; 60000 nM) | level (log10) ([7]; 6700 nM) | level (log10) ([7]; 20000 nM) | level (log10) ([7]; 60000 nM)
lMphg:SRB | 0.0045 ± 0.00071 | 0.001 | -0.0205 ± 0.005 | -0.0035 ± 0.00071 | 0.004 ± 0.0042 | -0.001 ± 0.0042 | -0.028 | -0.005 ± 0.0071 | -0.012 ± 0.0085 | -0.008 ± 0.018 | -0.0175 ± 0.0064 | -0.106 ± 0.029 | 0.008 ± 0.0057 | 0.012 | 0.0075 ± 0.0092 | -0.001 ± 0.0099 | -0.001 ± 0.0028 | -0.0005 ± 0.0092
3C:CCL2/MCP-1 | -0.0005 ± 0.0064 | -0.007 ± 0.021 | 0.003 ± 0.04 | 0.0035 ± 0.023 | 0.003 ± 0.054 | 0.0065 ± 0.025 | 0.01 | 0.0095 ± 0.011 | 0.004 ± 0.035 | 0.023 ± 0.057 | -0.0145 ± 0.013 | -0.166 ± 0.0085 | 0.009 ± 0.0028 | -0.0105 ± 0.035 | 0.009 ± 0.065 | -0.005 ± 0.011 | -0.005 ± 0.0014 | -0.007 ± 0.033
MyoF:bFGF | 0.002 ± 0.0071 | 0.008 ± 0.014 | 0.004 ± 0.021 | -0.001 ± 0.0071 | 0.0025 ± 0.028 | 0.0055 ± 0.022 | -0.127 | -0.015 ± 0.0042 | -0.0015 ± 0.03 | -0.0195 ± 0.00071 | 0.002 ± 0.0028 | -0.0175 ± 0.00071 | 0.0045 ± 0.0035 | -0.0035 ± 0.0078 | 0.0135 ± 0.0035 | -0.001 ± 0.0014 | 0.0005 ± 0.013 | 0.006 ± 0.011
MyoF:Collagen IV | -0.0365 ± 0.05 | -0.0255 ± 0.028 | -0.01 ± 0.028 | -0.0075 ± 0.00071 | -0.037 ± 0.0057 | -0.0225 ± 0.025 | 0.063 | -0.0175 ± 0.044 | -0.014 ± 0.038 | 0.0205 ± 0.056 | 0.018 ± 0.1 | 0.534 ± 0.07 | -0.021 ± 0.099 | -0.0295 ± 0.11 | -0.0075 ± 0.069 | -0.013 ± 0.0014 | -0.0335 ± 0.016 | 0.012 ± 0.02
lMphg:CCL3/MIP-1alpha | 0.014 ± 0.011 | -0.0165 ± 0.026 | -0.06 ± 0.021 | 0.047 ± 0.031 | 0.021 ± 0.054 | 0.0465 ± 0.042 | -0.016 | -0.025 ± 0.052 | -0.078 ± 0.054 | -0.119 ± 0.018 | 0.0225 ± 0.029 | 0.012 ± 0.057 | 0.001 ± 0.069 | 0.012 ± 0.034 | 0.0145 ± 0.073 | 0.009 ± 0.017 | -0.0095 ± 0.036 | 0.0235 ± 0.083
CASM3C:CD141/Thrombomodulin | -0.0155 ± 0.012 | -0.012 ± 0.025 | -0.0155 ± 0.005 | -0.01 ± 0.031 | -0.021 ± 0.0099 | -0.0045 ± 0.029 | 0.008 | -0.0045 ± 0.0021 | 0.008 ± 0.037 | 0.0045 ± 0.0064 | 0.0115 ± 0.09 | -0.008 ± 0.1 | -0.0055 ± 0.037 | -0.0135 ± 0.063 | -0.0125 ± 0.044 | 0.0105 ± 0.044 | 0.023 ± 0.0028 | 0.023 ± 0.0099
CASM3C:Proliferation | 0.0145 ± 0.0078 | -0.0185 ± 0.005 | 0.0565 ± 0.0092 | -0.012 ± 0.021 | -0.044 ± 0.0057 | 0 ± 0.031 | -0.119 | 0.0265 ± 0.0064 | -0.018 ± 0.027 | -0.026 ± 0.03 | -0.0865 ± 0.013 | -0.245 ± 0.018 | 0.004 ± 0.0042 | -0.012 ± 0.027 | -0.031 ± 0.03 | 0.02 ± 0.037 | 0.0125 ± 0.0078 | -0.664 ± 0.24
MyoF:Collagen I | 0.051 ± 0.047 | 0.0475 ± 0.021 | 0.0435 ± 0.013 | 0.004 ± 0.013 | -0.0155 ± 0.015 | 0.018 | -0.444 | -0.0215 ± 0.0092 | -0.0045 ± 0.03 | -0.043 ± 0.023 | -0.0255 ± 0.037 | -0.128 ± 0.033 | 0.004 ± 0.013 | -0.0005 ± 0.025 | 0.0145 ± 0.00071 | 0 ± 0.021 | -0.0005 ± 0.012 | 0.0015 ± 0.03
KF3CT:CXCL8/IL-8 | 0 ± 0.013 | 0.015 | 0.014 ± 0.025 | -0.0095 ± 0.0078 | -0.024 ± 0.018 | -0.023 ± 0.025 | -0.071 | -0.0165 ± 0.0035 | 0.0045 ± 0.00071 | 0.017 ± 0.0057 | -0.037 ± 0.027 | -0.027 ± 0.025 | -0.0215 ± 0.013 | -0.0275 ± 0.035 | -0.0085 ± 0.0092 | -0.0005 ± 0.025 | -0.0045 ± 0.023 | 0.0025 ± 0.015
BE3C:MMP-9 | -0.0475 ± 0.029 | -0.102 ± 0.0042 | -0.0735 ± 0.019 | -0.0055 ± 0.005 | -0.0045 ± 0.018 | 0.0135 ± 0.0092 | -0.008 | -0.0355 ± 0.021 | -0.041 ± 0.033 | -0.061 ± 0.028 | 0.0275 ± 0.013 | -0.269 ± 0.0099 | -0.0005 ± 0.00071 | -0.003 ± 0.018 | -0.0325 ± 0.042 | -0.0045 ± 0.037 | -0.0065 ± 0.019 | 0.0155 ± 0.021
lMphg:CD106/VCAM-1 | 0.0045 ± 0.005 | -0.001 ± 0.0014 | -0.0015 ± 0.0035 | -0.0145 ± 0.0078 | -0.0075 ± 0.011 | -0.0135 ± 0.005 | -0.025 | -0.0355 ± 0.015 | -0.0215 ± 0.028 | -0.055 ± 0.024 | -0.006 ± 0.0057 | -0.0715 ± 0.036 | -0.0075 ± 0.0078 | -0.0015 ± 0.037 | -0.0145 ± 0.042 | 0.0035 ± 0.021 | 0.0035 ± 0.032 | 0.0115 ± 0.04
MyoF:TIMP-1 | 0.0095 ± 0.05 | 0.015 ± 0.048 | 0.011 ± 0.02 | -0.0465 ± 0.069 | -0.0285 ± 0.047 | -0.0095 ± 0.036 | -0.047 | -0.0305 ± 0.042 | -0.0235 ± 0.011 | -0.056 ± 0.0099 | -0.042 ± 0.047 | -0.0405 ± 0.015 | -0.04 ± 0.057 | -0.024 ± 0.027 | 0.0175 ± 0.04 | 0.0125 ± 0.025 | 0.0145 ± 0.019 | 0.03 ± 0.013
CASM3C:LDLR | -0.0055 ± 0.0021 | -0.0095 ± 0.0064 | 0 ± 0.035 | -0.0145 ± 0.012 | 0.0015 ± 0.0021 | -0.0035 ± 0.025 | -0.028 | -0.019 ± 0.062 | -0.0255 ± 0.013 | -0.0135 ± 0.0035 | -0.044 ± 0.025 | -0.079 ± 0.033 | -0.052 ± 0.03 | -0.0235 ± 0.025 | 0.0035 ± 0.035 | 0.0045 ± 0.016 | 0.014 ± 0.017 | -0.0585 ± 0.022
3C:CD106/VCAM-1 | 0.008 ± 0.016 | 0.007 | 0.022 ± 0.0099 | -0.022 ± 0.028 | 0.006 ± 0.024 | 0.005 ± 0.021 | -0.043 | -0.0165 ± 0.012 | -0.016 ± 0.0085 | 0.0015 ± 0.0021 | -0.027 ± 0.0071 | -0.089 ± 0.0099 | -0.03 ± 0.021 | -0.028 ± 0.035 | -0.018 ± 0.02 | 0.006 ± 0.0071 | 0.013 ± 0.013 | 0.011 ± 0.021
lMphg:CCL2/MCP-1 | 0.0125 ± 0.0078 | 0.0295 ± 0.035 | 0.0535 ± 0.0021 | 0.0005 ± 0.047 | 0.006 ± 0.025 | -0.001 ± 0.0071 | -0.029 | -0.0115 ± 0.021 | -0.0245 ± 0.022 | -0.0405 ± 0.0035 | -0.047 ± 0.031 | -0.27 ± 0.056 | -0.005 ± 0.0099 | -0.0025 ± 0.019 | 0.0125 ± 0.015 | -0.016 ± 0.0028 | -0.046 ± 0.023 | -0.02 ± 0.0071
lMphg:IL-1alpha | 0.057 ± 0.025 | 0.039 ± 0.0085 | -0.12 ± 0.076 | 0.026 ± 0.048 | 0.0125 ± 0.032 | 0.007 ± 0.021 | 0.024 | -0.012 ± 0.0028 | -0.0425 ± 0.06 | -0.073 ± 0.0014 | 0.0035 ± 0.0035 | 0.0395 ± 0.04 | -0.0255 ± 0.052 | -0.041 ± 0.086 | -0.03 ± 0.082 | 0.007 ± 0.04 | 0.006 ± 0.061 | 0.001 ± 0.034
